{"source": "paper PMC8094182", "about": "“8-Substituted Triazolobenzodiazepines: In Vitro and In Vivo Pharmacology in Relation to Structural Docking at the α1 Subunit-Containing GABAA Receptor” (Frontiers in Pharmacology, 2021)", "key": {"[1]": {"molecular_target": "T1, rat α2β3γ2 GABAA receptor (α2GABAA) (Rattus norvegicus, UniProt P18508+P23576)", "T1 construct": "gene Gabra2; Full-length subunits co-expressed; pentamer; with Gamma-aminobutyric acid receptor subunit beta-3", "T1 sequence (P23576 29-451)": "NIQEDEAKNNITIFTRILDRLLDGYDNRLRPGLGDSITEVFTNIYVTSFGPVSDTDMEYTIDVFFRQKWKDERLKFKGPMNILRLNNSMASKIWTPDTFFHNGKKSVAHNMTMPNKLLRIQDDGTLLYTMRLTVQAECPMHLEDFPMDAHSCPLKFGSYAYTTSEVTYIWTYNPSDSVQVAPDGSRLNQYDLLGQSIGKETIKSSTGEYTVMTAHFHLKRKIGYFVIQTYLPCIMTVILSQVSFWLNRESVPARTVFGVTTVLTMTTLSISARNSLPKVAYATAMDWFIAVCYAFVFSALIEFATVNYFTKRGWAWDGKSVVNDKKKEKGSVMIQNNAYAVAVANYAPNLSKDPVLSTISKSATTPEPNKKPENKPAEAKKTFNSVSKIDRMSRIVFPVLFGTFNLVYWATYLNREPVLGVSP", "T1 sequence (P18508 39-466)": "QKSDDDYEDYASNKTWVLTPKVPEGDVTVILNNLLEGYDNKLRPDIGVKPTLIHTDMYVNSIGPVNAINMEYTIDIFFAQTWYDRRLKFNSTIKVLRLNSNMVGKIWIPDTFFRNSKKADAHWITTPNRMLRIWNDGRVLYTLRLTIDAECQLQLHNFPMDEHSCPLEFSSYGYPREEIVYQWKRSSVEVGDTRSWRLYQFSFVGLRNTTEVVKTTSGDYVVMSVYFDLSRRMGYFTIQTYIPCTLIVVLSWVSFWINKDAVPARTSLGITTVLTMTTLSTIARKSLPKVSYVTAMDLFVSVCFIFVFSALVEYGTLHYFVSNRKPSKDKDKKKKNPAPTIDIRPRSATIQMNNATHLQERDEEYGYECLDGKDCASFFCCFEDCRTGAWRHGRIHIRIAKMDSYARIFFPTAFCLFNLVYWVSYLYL", "T1 sequence (P63079 26-473 partner)": "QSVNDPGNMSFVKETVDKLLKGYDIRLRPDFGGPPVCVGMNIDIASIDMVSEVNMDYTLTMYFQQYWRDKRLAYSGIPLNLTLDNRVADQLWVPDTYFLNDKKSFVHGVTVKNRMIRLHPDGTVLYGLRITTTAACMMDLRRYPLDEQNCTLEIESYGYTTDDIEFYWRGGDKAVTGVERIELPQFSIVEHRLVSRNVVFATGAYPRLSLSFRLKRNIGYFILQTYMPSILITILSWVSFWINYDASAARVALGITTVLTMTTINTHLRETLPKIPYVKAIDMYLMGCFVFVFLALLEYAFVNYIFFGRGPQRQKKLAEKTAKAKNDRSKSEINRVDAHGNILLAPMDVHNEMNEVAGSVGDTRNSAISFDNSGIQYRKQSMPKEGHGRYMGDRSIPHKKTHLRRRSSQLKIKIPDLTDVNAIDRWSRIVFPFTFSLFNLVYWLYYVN", "experiment": "two-electrode voltage clamp, Xenopus oocytes, potentiation of GABA EC3 current", "type": "cell-based", "details": "read-out: α2", "text": "two-electrode voltage clamp, Xenopus oocytes, potentiation of GABA EC3 current on rat α2β3γ2 GABAA receptor (α2GABAA)"}, "[2]": {"molecular_target": "T2, rat α1β3γ2 GABAA receptor (α1GABAA) (Rattus norvegicus, UniProt P18508+P62813)", "T2 construct": "gene Gabra1; Full-length subunits co-expressed; pentamer; with Gamma-aminobutyric acid receptor subunit beta-3", "T2 sequence (P62813 28-455)": "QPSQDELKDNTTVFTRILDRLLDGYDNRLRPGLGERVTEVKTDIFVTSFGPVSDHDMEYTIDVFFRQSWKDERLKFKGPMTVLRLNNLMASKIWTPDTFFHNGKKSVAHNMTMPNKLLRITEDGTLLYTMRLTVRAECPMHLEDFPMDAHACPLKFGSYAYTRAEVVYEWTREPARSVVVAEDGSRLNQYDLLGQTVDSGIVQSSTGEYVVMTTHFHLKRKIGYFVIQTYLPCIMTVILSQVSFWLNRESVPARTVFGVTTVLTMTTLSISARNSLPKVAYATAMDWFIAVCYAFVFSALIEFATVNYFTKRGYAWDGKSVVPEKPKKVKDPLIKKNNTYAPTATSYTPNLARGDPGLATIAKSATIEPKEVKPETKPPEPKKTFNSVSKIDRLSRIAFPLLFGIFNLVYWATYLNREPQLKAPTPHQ", "T2 sequence (P18508 39-466)": "as the sequence (P18508 39-466) above", "T2 sequence (P63079 26-473 partner)": "as the sequence (P63079 26-473 partner) above", "experiment": "[3H]flunitrazepam displacement, HEK […] membranes, filtration", "type": "binding", "details": "read-out: α1"}, "[3]": {"molecular_target": "T1, rat α2β3γ2 GABAA receptor (α2GABAA)", "experiment": "[3H]flunitrazepam displacement, HEK […] membranes, filtration", "type": "binding", "details": "read-out: α2"}, "[4]": {"molecular_target": "T3, rat α3β3γ2 GABAA receptor (α3GABAA) (Rattus norvegicus, UniProt P18508+P20236)", "T3 construct": "gene Gabra3; Full-length subunits co-expressed; pentamer; with Gamma-aminobutyric acid receptor subunit beta-3", "T3 sequence (P20236 29-493)": "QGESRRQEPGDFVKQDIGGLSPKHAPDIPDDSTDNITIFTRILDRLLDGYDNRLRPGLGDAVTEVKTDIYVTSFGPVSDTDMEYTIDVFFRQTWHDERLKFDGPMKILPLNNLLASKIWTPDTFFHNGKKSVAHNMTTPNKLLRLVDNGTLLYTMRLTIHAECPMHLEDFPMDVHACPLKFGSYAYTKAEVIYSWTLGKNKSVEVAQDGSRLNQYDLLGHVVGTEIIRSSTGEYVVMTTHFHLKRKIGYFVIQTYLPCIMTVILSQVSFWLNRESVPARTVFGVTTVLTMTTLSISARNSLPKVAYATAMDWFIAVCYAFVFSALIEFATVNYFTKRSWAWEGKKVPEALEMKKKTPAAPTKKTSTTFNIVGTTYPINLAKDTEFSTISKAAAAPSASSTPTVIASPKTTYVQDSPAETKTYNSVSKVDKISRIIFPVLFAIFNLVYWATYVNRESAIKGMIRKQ", "T3 sequence (P18508 39-466)": "as the sequence (P18508 39-466) above", "T3 sequence (P63079 26-473 partner)": "as the sequence (P63079 26-473 partner) above", "experiment": "two-electrode voltage clamp, Xenopus oocytes, potentiation of GABA EC3 current", "type": "cell-based", "details": "read-out: α3", "text": "two-electrode voltage clamp, Xenopus oocytes, potentiation of GABA EC3 current on rat α3β3γ2 GABAA receptor (α3GABAA)"}, "[5]": {"molecular_target": "T4, rat α5β3γ2 GABAA receptor (α5GABAA) (Rattus norvegicus, UniProt P18508+P19969)", "T4 construct": "gene Gabra5; Full-length subunits co-expressed; pentamer; with Gamma-aminobutyric acid receptor subunit beta-3", "T4 sequence (P19969 26-464)": "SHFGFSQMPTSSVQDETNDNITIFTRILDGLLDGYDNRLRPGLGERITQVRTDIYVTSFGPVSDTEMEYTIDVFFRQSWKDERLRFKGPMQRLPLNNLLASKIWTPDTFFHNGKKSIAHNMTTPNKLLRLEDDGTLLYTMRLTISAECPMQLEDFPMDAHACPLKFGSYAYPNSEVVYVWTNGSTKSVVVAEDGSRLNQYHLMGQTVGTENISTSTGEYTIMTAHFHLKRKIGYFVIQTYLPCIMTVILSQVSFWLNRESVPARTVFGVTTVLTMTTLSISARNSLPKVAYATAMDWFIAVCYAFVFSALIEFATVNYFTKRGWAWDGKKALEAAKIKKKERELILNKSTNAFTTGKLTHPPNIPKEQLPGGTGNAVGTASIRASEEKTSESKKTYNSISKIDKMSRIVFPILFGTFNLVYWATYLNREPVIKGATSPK", "T4 sequence (P18508 39-466)": "as the sequence (P18508 39-466) above", "T4 sequence (P63079 26-473 partner)": "as the sequence (P63079 26-473 partner) above", "experiment": "two-electrode voltage clamp, Xenopus oocytes, potentiation of GABA EC3 current", "type": "cell-based", "details": "read-out: α5", "text": "two-electrode voltage clamp, Xenopus oocytes, potentiation of GABA EC3 current on rat α5β3γ2 GABAA receptor (α5GABAA)"}, "[6]": {"molecular_target": "T2, rat α1β3γ2 GABAA receptor (α1GABAA)", "experiment": "two-electrode voltage clamp, Xenopus oocytes, potentiation of GABA EC3 current", "type": "cell-based", "details": "read-out: α1", "text": "two-electrode voltage clamp, Xenopus oocytes, potentiation of GABA EC3 current on rat α1β3γ2 GABAA receptor (α1GABAA)"}, "[7]": {"molecular_target": "T4, rat α5β3γ2 GABAA receptor (α5GABAA)", "experiment": "[3H]flunitrazepam displacement, HEK […] membranes, filtration", "type": "binding", "details": "read-out: α5"}, "[8]": {"molecular_target": "T3, rat α3β3γ2 GABAA receptor (α3GABAA)", "experiment": "[3H]flunitrazepam displacement, HEK […] membranes, filtration", "type": "binding", "details": "read-out: α3"}}}
{"molecule": "C#Cc1ccc2c(c1)C(c1ccccc1Cl)=NCc1nnc(C)n1-2", "note": "[XLi-JY-DMH, 6-(2-chlorophenyl)-8-ethynyl-1-methyl-4H-benzo [f][1,2,4]triazolo[4,3-a][1,4]diazepine]", "values": [{"measurement": "EC50", "setting": "[1]", "value": 20.7, "unit": "nM"}, {"measurement": "Ki", "setting": "[2]", "value": "7.7 ± 5.5", "unit": "nM"}, {"measurement": "Ki", "setting": "[3]", "value": "7.2 ± 3", "unit": "nM"}, {"measurement": "EC50", "setting": "[4]", "value": 47, "unit": "nM"}, {"measurement": "EC50", "setting": "[5]", "value": 14.9, "unit": "nM"}, {"measurement": "EC50", "setting": "[6]", "value": 35.2, "unit": "nM"}, {"measurement": "Ki", "setting": "[7]", "value": "3.8 ± 1", "unit": "nM"}, {"measurement": "Ki", "setting": "[8]", "value": "4.2 ± 1.6", "unit": "nM"}]}
